Laboratory results as given in ChEMBL document CHEMBL4017480, “Discovery and optimization of selective FGFR4 inhibitors via scaffold hopping” (Bioorg Med Chem Lett, 2017).
≈ marks a conversion by molar mass, not a printed value.

How the values were obtained:
[1] = target: T1, Tyrosine-protein kinase ITK/TSK (Homo sapiens) (UniProt Q08881); assay: Inhibition of human ITK at 10 uM using myelin basic protein as substrate measured after 120 mins in presence of [gamma33P]ATP by P81 ion exchange chromatographic method relative to control
T1 sequence (whole entry): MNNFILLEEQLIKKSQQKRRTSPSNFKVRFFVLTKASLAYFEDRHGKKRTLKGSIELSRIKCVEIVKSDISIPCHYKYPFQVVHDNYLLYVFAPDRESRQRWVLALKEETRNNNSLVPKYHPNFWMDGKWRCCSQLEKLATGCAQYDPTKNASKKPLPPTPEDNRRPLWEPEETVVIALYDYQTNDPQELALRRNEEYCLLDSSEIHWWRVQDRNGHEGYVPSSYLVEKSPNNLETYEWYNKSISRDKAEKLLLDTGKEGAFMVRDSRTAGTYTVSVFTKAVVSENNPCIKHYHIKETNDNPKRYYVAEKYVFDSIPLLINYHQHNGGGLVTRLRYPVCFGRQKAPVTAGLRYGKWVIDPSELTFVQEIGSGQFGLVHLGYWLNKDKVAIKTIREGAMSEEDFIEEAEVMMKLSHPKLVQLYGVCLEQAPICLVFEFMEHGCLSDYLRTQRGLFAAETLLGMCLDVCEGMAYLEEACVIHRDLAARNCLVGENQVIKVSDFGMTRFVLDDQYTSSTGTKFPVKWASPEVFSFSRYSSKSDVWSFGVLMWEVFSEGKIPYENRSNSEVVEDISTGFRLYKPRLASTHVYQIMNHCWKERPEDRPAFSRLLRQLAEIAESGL

[2] = target: T2, Tyrosine-protein kinase BTK (Homo sapiens, UniProt Q06187); assay: Inhibition of human BTK at 10 uM using KVEKIGEGTYGVVYK as substrate measured after 120 mins in presence of [gamma33P]ATP by P81 ion exchange chromatographic method relative to control
T2 sequence (Q06187 whole entry): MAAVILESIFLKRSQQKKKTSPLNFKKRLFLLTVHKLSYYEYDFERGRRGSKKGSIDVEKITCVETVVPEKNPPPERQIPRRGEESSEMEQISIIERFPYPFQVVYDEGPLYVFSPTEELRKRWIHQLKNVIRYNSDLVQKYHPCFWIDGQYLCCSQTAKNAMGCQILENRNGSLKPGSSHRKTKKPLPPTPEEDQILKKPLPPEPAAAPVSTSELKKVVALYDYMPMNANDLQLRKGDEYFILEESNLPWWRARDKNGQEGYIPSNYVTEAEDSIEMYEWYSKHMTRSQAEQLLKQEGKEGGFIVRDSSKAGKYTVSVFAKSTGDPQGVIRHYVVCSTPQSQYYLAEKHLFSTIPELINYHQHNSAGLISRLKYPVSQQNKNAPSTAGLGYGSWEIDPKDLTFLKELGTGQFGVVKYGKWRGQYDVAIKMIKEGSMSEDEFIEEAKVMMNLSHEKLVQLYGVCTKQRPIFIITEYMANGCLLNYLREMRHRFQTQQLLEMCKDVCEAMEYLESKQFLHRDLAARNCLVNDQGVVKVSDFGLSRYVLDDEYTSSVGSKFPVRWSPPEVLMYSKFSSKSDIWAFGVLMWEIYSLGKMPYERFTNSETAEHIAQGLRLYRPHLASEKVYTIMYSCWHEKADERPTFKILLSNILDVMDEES

[3] = Stability in mouse plasma assessed as compound remaining at 2 uM measured after 2 hrs by LC-MS/MS analysis; assay type: ADME, cell-free; details: read-out: Stability
Cytochrome P450 3A4 = Cytochrome P450 3A4 (Homo sapiens, UniProt P08684); assay: Inhibition of CYP3A4 in human liver microsomes using midazolam as substrate pretreated for 10 mins followed by substrate addition measured after 10 mins in presence of NADPH by LC-MS/MS method; assay type: ADME
Chain of Cytochrome P450 3A4 (P08684 whole entry): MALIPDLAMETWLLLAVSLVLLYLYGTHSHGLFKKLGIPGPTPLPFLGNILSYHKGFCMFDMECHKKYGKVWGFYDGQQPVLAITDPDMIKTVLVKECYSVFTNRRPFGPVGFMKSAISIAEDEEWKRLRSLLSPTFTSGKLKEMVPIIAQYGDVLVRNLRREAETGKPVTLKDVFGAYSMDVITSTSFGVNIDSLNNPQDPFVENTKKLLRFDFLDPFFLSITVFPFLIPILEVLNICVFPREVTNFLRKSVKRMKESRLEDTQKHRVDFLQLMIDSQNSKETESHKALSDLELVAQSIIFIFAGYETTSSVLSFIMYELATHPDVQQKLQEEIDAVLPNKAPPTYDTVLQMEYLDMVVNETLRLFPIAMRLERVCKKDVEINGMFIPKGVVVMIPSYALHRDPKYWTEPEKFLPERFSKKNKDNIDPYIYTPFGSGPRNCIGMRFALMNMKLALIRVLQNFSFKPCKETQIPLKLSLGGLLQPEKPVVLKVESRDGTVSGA

[4] = Kinetic solubility of the compound at pH 7.4; assay type: physicochemical; details: buffer, read-out: Kinetic_solubility
[5] = target: Macrophage colony-stimulating factor 1 receptor (Homo sapiens, UniProt P07333); assay: Inhibition of human FMS using poly[Glu:Tyr] (4:1) as substrate measured after 120 mins in presence of [gamma33P]ATP by P81 ion exchange chromatographic method
Chain of Macrophage colony-stimulating factor 1 receptor (P07333 whole entry): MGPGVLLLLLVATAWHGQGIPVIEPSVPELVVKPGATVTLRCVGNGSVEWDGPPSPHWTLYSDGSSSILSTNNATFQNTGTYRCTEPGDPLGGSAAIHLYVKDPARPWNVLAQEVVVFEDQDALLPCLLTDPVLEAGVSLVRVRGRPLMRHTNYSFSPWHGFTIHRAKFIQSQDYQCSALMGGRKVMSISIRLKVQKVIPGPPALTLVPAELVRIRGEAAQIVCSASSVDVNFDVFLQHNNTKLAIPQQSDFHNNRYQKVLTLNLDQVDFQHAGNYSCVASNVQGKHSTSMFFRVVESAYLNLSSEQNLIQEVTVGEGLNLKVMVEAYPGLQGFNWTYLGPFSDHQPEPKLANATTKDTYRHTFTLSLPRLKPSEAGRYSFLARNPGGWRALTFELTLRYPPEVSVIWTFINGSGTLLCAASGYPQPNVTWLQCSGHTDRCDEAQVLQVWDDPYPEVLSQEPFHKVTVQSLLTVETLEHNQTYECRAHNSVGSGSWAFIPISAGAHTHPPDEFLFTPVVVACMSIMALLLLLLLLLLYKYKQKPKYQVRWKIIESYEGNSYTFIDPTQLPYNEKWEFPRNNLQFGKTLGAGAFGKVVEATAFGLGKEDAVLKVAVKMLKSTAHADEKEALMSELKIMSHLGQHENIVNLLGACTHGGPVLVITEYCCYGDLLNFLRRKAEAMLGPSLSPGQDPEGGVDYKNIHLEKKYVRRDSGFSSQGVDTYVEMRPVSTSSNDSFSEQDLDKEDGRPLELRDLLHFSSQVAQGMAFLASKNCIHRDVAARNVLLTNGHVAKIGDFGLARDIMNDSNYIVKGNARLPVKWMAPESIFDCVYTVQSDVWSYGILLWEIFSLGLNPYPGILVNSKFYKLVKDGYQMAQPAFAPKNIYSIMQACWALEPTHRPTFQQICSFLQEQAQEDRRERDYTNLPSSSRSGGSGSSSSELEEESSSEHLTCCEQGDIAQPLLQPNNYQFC

[6] = target: Epidermal growth factor receptor (Homo sapiens, UniProt P00533); assay: Inhibition of human EGFR at 10 uM using poly[Glu:Tyr] (4:1) as substrate measured after 120 mins in presence of [gamma33P]ATP by P81 ion exchange chromatographic method relative to control
Chain of Epidermal growth factor receptor (P00533 whole entry): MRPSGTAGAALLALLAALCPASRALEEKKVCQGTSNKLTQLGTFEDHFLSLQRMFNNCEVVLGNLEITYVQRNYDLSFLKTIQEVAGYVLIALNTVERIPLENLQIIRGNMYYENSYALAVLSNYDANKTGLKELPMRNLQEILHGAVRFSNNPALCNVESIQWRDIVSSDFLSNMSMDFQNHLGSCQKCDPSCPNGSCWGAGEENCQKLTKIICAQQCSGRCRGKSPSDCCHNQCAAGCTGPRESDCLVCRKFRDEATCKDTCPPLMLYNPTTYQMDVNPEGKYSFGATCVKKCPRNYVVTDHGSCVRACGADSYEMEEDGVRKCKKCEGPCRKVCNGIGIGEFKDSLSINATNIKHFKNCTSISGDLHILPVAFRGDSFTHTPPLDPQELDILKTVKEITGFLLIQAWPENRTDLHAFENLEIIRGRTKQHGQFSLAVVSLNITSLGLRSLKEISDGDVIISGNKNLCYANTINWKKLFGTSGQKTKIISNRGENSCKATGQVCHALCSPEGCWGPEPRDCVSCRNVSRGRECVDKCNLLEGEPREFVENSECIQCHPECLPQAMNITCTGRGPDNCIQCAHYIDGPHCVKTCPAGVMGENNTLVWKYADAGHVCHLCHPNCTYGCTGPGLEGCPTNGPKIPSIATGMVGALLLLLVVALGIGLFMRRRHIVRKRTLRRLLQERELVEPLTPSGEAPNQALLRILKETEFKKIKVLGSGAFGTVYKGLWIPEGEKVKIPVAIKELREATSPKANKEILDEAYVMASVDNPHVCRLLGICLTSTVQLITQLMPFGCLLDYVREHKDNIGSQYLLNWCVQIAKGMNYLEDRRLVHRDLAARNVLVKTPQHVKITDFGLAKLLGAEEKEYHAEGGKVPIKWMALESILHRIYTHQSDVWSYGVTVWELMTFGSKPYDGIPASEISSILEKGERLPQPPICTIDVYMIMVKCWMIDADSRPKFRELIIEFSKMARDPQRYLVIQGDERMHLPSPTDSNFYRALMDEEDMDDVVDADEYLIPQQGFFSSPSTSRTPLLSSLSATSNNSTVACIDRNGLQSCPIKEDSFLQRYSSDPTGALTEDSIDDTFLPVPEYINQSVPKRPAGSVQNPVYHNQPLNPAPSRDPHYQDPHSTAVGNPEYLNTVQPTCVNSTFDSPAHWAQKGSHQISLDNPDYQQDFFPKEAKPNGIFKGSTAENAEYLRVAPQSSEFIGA

[7] = Octanol-buffer distribution co-efficient, log D of the compound at pH 7.4; assay type: physicochemical
[8] = target: T2, Tyrosine-protein kinase BTK; assay: Inhibition of human BTK using KVEKIGEGTYGVVYK as substrate measured after 120 mins in presence of [gamma33P]ATP by P81 ion exchange chromatographic method
[9] = Stability in human plasma assessed as compound remaining at 2 uM measured after 2 hrs by LC-MS/MS analysis; assay type: ADME, cell-free; details: read-out: Stability
[10] = target: T3, Tyrosine-protein kinase JAK3 (Homo sapiens) (UniProt P52333); assay: Inhibition of human JAK3 at 10 uM using GEEEEYFELVKKKK as substrate measured after 120 mins in presence of [gamma33P]ATP by P81 ion exchange chromatographic method relative to control
T3 sequence (whole entry): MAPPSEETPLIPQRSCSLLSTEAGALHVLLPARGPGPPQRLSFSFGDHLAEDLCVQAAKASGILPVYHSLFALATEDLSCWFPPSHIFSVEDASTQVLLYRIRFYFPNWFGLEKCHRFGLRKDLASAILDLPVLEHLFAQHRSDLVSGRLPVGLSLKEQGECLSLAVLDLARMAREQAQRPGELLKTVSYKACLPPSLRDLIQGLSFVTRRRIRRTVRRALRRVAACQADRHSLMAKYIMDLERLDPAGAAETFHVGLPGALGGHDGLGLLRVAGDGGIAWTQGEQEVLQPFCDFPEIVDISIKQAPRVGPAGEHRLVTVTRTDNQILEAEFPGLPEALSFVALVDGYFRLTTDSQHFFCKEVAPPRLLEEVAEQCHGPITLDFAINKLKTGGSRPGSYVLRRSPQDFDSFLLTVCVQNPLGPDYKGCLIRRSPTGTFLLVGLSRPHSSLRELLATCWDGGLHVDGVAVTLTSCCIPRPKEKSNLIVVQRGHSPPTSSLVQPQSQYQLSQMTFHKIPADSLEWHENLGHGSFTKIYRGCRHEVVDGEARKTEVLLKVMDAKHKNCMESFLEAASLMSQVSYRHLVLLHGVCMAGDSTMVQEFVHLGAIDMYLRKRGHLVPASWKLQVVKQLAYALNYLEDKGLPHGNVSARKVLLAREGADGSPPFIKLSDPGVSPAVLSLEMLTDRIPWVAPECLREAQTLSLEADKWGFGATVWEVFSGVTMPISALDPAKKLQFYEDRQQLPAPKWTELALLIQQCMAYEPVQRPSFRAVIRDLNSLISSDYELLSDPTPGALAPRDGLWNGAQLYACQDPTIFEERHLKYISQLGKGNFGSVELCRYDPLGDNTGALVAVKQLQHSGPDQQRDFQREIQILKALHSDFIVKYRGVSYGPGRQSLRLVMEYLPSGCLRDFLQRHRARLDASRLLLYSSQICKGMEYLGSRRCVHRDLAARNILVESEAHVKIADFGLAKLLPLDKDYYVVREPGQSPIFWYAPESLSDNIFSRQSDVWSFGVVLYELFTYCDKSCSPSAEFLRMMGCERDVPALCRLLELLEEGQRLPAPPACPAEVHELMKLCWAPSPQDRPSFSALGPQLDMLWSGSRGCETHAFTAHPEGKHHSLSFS

| Compound | inhibition [1] [%] | inhibition [2] [%] | remaining at 2 h, 2 µM [3] [%] | IC50 (Cytochrome P450 3A4) [µM] | solubility kinetic [4] [µg/mL] | IC50 [5] [µM] | inhibition [6] [%] | logD [7] | IC50 [8] [µM] | remaining at 2 h, 2 µM [9] [%] | inhibition [10] [%] |
| --- | --- | --- | --- | --- | --- | --- | --- | --- | --- | --- | --- |
| C=CC(=O)Nc1cccc(C)c1Nc1ncc2cc(-c3c(Cl)c(OC)cc(OC)c3Cl)ccc2n1 | 16 | -7 | 63 | 3 | < 0.5 | 1.1 | 1 | > 4.5 | > 10 | 71 | 12 |
| C=CC(=O)Nc1cccc(C)c1Nc1ncc(OCc2c(F)c(OC)cc(OC)c2F)cn1 | 9 | 7 | 13 | 6.9 | 39 (≈ 85.4 µM) | > 10 | 6 | 3 | > 10 | 48 | 7 |
| C=CC(=O)N[C@H]1COC[C@H]1Nc1ncc(OCc2c(F)c(OC)cc(OC)c2F)cn1 | 0 | 14 | 97 | 13.3 | 78 (≈ 179 µM) | > 10 | 1 | 1.8 | > 10 | 92 | 9 |
